Values quoted from earlier work in EP1923060A1, “Combinations of a sphingolipid and an HMG-CoA reductase inhibitor for treating hypercholesterolemia” (Nederlandse Organisatie voor …, priority 2006, dated 2008).

Tests used:
[1] = in humans
C57bI mice = conditions: intraperitoneal injection; US 2004/0171557
[2] = tested on: galactosamine-injured primary rat hepatocytes; conditions: Kim et al., Phytotherapy Res. (2000) 14:448-451

## CCCCCCCCCCCCCC[C@@H](O)[C@@H](O)[C@@H](N)CO [phytosphingosine]
[1]
  plasma (VLDL and LDL) cholesterol and triglyceride levels: demonstrated decisively

## glucocerebroside
C57bI mice
  liver fat content: may be reduced

## CCCCCCCCC/C=C\CC/C=C/[C@@H](O)[C@H](CO[C@@H]1O[C@H](CO)[C@@H](O)[C@H](O)[C@H]1O)NC(=O)CCCCCCCCCCCCCCC [LCC, 1-O-(β-D-glucopyranosyl)-(2S,3R,4E,8Z)-2-N-palmityloctadecasphinga-4,8-diene]
[2]
  release into the culture medium of GPT and SDH: reduce the release
